Measurements taken from EPA's ToxValDB 9.5 (doi:10.2903/j.efsa.2005.285).

Columns and labels:
Bovidae = conditions: subchronic, oral, diet; for LEL: duration: 12 weeks, no effects
Gallus gallus = conditions: reproduction developmental, oral, diet, F
Canidae = conditions: chronic, oral, Beagle, organ weight
Ovis sp. = conditions: oral, diet
Sus scrofa = conditions: subchronic; duration: 60 days; oral; diet; Not specified; no effects
Oncorhynchus mykiss = conditions: chronic/long-term; duration: 240 days; oral; feed; clinical chemistry

Row | SMILES | LEL (Bovidae; M) [mg/kg-day] | NOAEL (Bovidae; duration: 43 days, F, clinical signs) [mg/kg-day] | NOAEL (Gallus gallus; duration: 2 years, no effects) [mg/kg-day] | NOAEL (Canidae; duration: 15.6 months, diet, M/F) [mg/kg-day] | LEL (Ovis sp.; subchronic, duration: 12 weeks, no effects) [mg/kg-day] | LEL (Bovidae; F) [mg/kg-day] | NOAEL (Gallus gallus; duration: 13 months, mortality) [mg/kg-day] | NOAEL (Canidae; duration: 2 years, capsule) [mg/kg-day] | NOAEL (Ovis sp.; chronic, duration: 32 weeks, body weight) [mg/kg-day] | LEL (Sus scrofa) [mg/kg-day] | LOEL (Oncorhynchus mykiss) [µg/kg-day]
1 | ClC1=C(Cl)[C@]2(Cl)[C@H]3[C@H]([C@@H]4C=C[C@H]3C4)[C@@]1(Cl)C2(Cl)Cl [Aldrin] | 0.3 | 1.5 | 0.06 | 0.05 | 0.3 | – | – | – | – | – | –
2 | ClC1=C(Cl)[C@]2(Cl)[C@@H]3[C@@H]4C[C@@H]([C@H]5O[C@@H]45)[C@@H]3[C@@]1(Cl)C2(Cl)Cl [Dieldrin] | 0.06 | – | – | – | – | 0.08 | 0.6 | 0.005 | 1 | 1.2 | 14
